For one assay, the target named is recombinant human DPP-4 (Homo sapiens, UniProt P27487). The assay can be described thus: recombinant human DPP-4 fluorogenic substrate cleavage assay. To be noted: compound 10 uM; substrate (H-Ala-Pro)-2-Rh110 10 μM; 1 hour pre-incubation, room temperature. It is filed as biochemical. The method, then:
For compound screening, the assay employed measures the activity of recombinant human DPP-4 to cleave the synthetic fluorogenic substrate (H-Ala-Pro)-2—Rh110. The reaction is run in 384-well plates. Compound solutions in assay buffer are pre-incubated with the human recombinant DPP-4 and the reaction is initiated by the addition of the substrate. The product of the reaction is quantified by measuring the fluorescence intensity using Tecan Ultraplate reader. For each compound concentration tested, the percent of inhibition is calculated.
For the determination of IC50 and/or % of inhibition values, the assay is performed at room temperature in 384-well plates using a TECAN Ultra plate reader. Total assay volume is 30 μl. Test compounds are dissolved in 90% (v/v) DMSO/water and diluted in water containing 0.05% (w/v) CHAPS to 3-times the desired assay concentration. For the assay, 10 μl water/CHAPS (±test compound) are added per well, followed by the addition of 10 μl hDPP4 solution (diluted with 1.5× assay buffer, i.e. 37.5 mM Tris/HCl, pH 7.4, 210 mM NaCl, 15 mM KCl, and 0.05% (w/v) CHAPS). The final assay concentrations are […] for hDPP4 according to the enzyme concentrations determined by the Bradford method. After 1 hour of pre-incubation at room temperature, the reaction is started by the addition of 10 μl substrate solution (substrate dilutes in 1.5× assay buffer, final substrate concentration is 10 μM). The effect of the compound on the enzymatic activity is obtained from the linear progression curves and determined from two readings, the first one taken directly after the addition of substrate (t=0 min) and the second one after 1 hour (t=60 min). The apparent inhibition constant, IC50, is calculated from the plot of percentage of inhibition vs. inhibitor concentration using non-linear regression analysis software (XLfit, Vers. 4.0; ID Business Solution Ltd., Guildford, Surrey, UK).
Chain of recombinant human DPP-4 (P27487 whole entry): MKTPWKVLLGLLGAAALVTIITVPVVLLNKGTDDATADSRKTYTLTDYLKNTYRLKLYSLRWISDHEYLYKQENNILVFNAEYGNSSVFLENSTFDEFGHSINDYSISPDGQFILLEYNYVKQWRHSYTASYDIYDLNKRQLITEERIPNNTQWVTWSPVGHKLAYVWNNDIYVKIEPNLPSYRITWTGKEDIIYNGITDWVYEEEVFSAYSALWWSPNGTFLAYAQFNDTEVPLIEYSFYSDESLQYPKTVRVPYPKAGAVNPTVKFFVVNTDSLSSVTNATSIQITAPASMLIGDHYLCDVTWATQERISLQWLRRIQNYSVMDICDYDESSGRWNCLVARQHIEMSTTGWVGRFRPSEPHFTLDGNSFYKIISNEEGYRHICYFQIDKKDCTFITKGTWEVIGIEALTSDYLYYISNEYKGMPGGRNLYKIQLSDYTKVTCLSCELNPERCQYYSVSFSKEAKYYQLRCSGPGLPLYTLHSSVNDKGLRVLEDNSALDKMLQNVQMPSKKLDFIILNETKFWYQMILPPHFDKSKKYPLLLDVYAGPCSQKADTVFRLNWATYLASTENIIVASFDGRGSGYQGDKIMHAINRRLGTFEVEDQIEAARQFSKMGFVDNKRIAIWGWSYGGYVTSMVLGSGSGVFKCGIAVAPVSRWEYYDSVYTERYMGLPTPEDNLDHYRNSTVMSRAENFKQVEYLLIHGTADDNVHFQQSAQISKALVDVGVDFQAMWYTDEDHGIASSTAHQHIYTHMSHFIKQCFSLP
Turning to `N[C@@H](CCN1CC[C@H](c2ccc(F)cc2)C1)Cc1cc(F)c(F)cc1F` [Compound 29], the “% Inhib at 10 uM” value turned out to be 99.4%.

Still in this assay, the particulars now being: compound 10 uM; substrate (H-Ala-Pro)-2-Rh110 10 μM; 1 hour pre-incubation, room temperature; read-out: % Inhib at 10 uM.
Consider `COc1ccccc1C1CCN(CC[C@H](N)Cc2cc(F)c(F)cc2F)C1` (stereo partly drawn) [Compound 19, (R)-3-[3-(2-Methoxy-phenyl)-pyrrolidin-1-yl]-1-(2,4,5-trifluoro-benzyl)-propylamine], for which the inhibition at 10 µM came to 99.2%.

Turning to `N[C@@H](CCN1CCCC(c2ccc3c(c2)OCO3)C1)Cc1cc(F)c(F)cc1F` (stereo partly drawn) [Compound 27, (R)-3-(3-Benzo[1,3]dioxol-5-yl-piperidin-1-yl)-1-(2,4,5-trifluoro-benzyl)-propylamine], the inhibition at 10 µM turned out to be 99.7%.

`N[C@@H](CCN1CCC(c2cccc(Cl)c2)C1)Cc1cc(F)c(F)cc1F` (stereo partly drawn) [Compound 15, (R)-3-[3-(3-Chloro-phenyl)-pyrrolidin-1-yl]-1-(2,4,5-trifluoro-benzyl)-propylamine]: the inhibition at 10 µM is 99.3%.

In the case of `CC1CCCN(CC[C@H](N)Cc2cc(F)c(F)cc2F)C1` (stereo partly drawn) [Compound 25, (R)-3-(3-Methyl-piperidin-1-yl)-1-(2,4,5-trifluoro-benzyl)-propylamine], the inhibition at 10 µM was 98.6%.

For `N[C@@H](CCN1CCCC(c2cccc(C(F)(F)F)c2)C1)Cc1cc(F)c(F)cc1F` (stereo partly drawn) [Compound 6, (R)-1-(2,4,5-Trifluoro-benzyl)-3-[3-(3-trifluoromethyl-phenyl)-piperidin-1-yl]-propylamine], the inhibition at 10 µM is 98.9%.

For `N[C@@H](CCN1CCCC(c2ccccc2C(F)(F)F)C1)Cc1cc(F)c(F)cc1F` (stereo partly drawn) [Compound 7, (R)-1-(2,4,5-Trifluoro-benzyl)-3-[3-(2-trifluoromethyl-phenyl)-piperidin-1-yl]-propylamine], the inhibition at 10 µM is 98.3%.

For `N[C@@H](CCN1CCCC(c2ccccc2)C1)Cc1cc(F)c(F)cc1F` (stereo partly drawn) [Compound 1, (R)-3-(3-Phenyl-piperidin-1-yl)-1-(2,4,5-trifluoro-benzyl)-propylamine], the inhibition at 10 µM is 99.9%.

Regarding `COc1cccc(C2CCCN(CC[C@H](N)Cc3cc(F)c(F)cc3F)C2)c1` (stereo partly drawn) [Compound 3, (R)-3-[3-(3-Methoxy-phenyl)-piperidin-1-yl]-1-(2,4,5-trifluoro-benzyl)-propylamine], the inhibition at 10 µM is 97.9%.

In the case of `N[C@@H](CCN1CCC(c2ccc(C(F)(F)F)cc2)C1)Cc1cc(F)c(F)cc1F` (stereo partly drawn) [Compound 20, (R)-1-(2,4,5-Trifluoro-benzyl)-3-[3-(4-trifluoromethyl-phenyl)-pyrrolidin-1-yl]-propylamine], the inhibition at 10 µM was determined as 99.1%.

For the compound `COc1ccc(C2CCCN(CC[C@H](N)Cc3cc(F)c(F)cc3F)C2)cc1` (stereo partly drawn) [Compound 2, (R)-3-[3-(4-Methoxy-phenyl)-piperidin-1-yl]-1-(2,4,5-trifluoro-benzyl)-propylamine], the inhibition at 10 µM stood at 99.5%.

`N[C@@H](CCN1CCCC(c2ccc(F)cc2)C1)Cc1cc(F)c(F)cc1F` (stereo partly drawn) [Compound 11, (R)-3-[3-(4-Fluoro-phenyl)-piperidin-1-yl]-1-(2,4,5-trifluoro-benzyl)-propylamine]: the inhibition at 10 µM was 99.6%.

In the case of `N[C@@H](CCN1CCC(c2ccccc2Cl)C1)Cc1cc(F)c(F)cc1F` (stereo partly drawn) [Compound 16, (R)-3-[3-(2-Chloro-phenyl)-pyrrolidin-1-yl]-1-(2,4,5-trifluoro-benzyl)-propylamine], the inhibition at 10 µM came out at 99.5%.

As to `N[C@@H](CCN1CCCCC1)Cc1cc(F)c(F)cc1F` [Compound 24, (R)-3-Piperidin-1-yl-1-(2,4,5-trifluoro-benzyl)-propylamine], the inhibition at 10 µM came out at 99.3%.

For the compound `COc1ccc(C2CCN(CC[C@H](N)Cc3cc(F)c(F)cc3F)C2)cc1` (stereo partly drawn) [Compound 17, (R)-3-[3-(4-Methoxy-phenyl)-pyrrolidin-1-yl]-1-(2,4,5-trifluoro-benzyl)-propylamine], the inhibition at 10 µM was found to be 98.4%.

In the case of `COCC1CCCN(CC[C@H](N)Cc2cc(F)c(F)cc2F)C1` (stereo partly drawn) [Compound 26, (R)-3-(3-Methoxymethyl-piperidin-1-yl)-1-(2,4,5-trifluoro-benzyl)-propylamine], the inhibition at 10 µM was 99.5%.

Turning to `N[C@@H](CCN1CCC(c2ccccc2)C1)Cc1cc(F)c(F)cc1F` (stereo partly drawn) [Compound 14, (R)-3-(3-Phenyl-pyrrolidin-1-yl)-1-(2,4,5-trifluoro-benzyl)-propylamine], the inhibition at 10 µM stood at 99.6%.

Consider `N[C@@H](CCN1CCCC(c2ccc(C(F)(F)F)cc2)C1)Cc1cc(F)c(F)cc1F` (stereo partly drawn) [Compound 5, (R)-1-(2,4,5-Trifluoro-benzyl)-3-[3-(4-trifluoromethyl-phenyl)-piperidin-1-yl]-propylamine], for which the inhibition at 10 µM is 99.3%.

Turning to `Cc1ccc(C2CCCN(CC[C@H](N)Cc3cc(F)c(F)cc3F)C2)cc1` (stereo partly drawn) [Compound 8, (R)-3-(3-p-Tolyl-piperidin-1-yl)-1-(2,4,5-trifluoro-benzyl)-propylamine], the inhibition at 10 µM turned out to be 99.6%.

Turning to `Cc1ccccc1C1CCCN(CC[C@H](N)Cc2cc(F)c(F)cc2F)C1` (stereo partly drawn) [Compound 10, (R)-3-(3-o-Tolyl-piperidin-1-yl)-1-(2,4,5-trifluoro-benzyl)-propylamine], the inhibition at 10 µM is 99.4%.

With `COc1ccccc1C1CCCN(CC[C@H](N)Cc2cc(F)c(F)cc2F)C1` (stereo partly drawn) [Compound 4, (R)-3-[3-(2-Methoxy-phenyl)-piperidin-1-yl]-1-(2,4,5-trifluoro-benzyl)-propylamine], the inhibition at 10 µM stood at 98.9%.

With `N[C@@H](CCN1CCC(c2ccccc2F)C1)Cc1cc(F)c(F)cc1F` (stereo partly drawn) [Compound 23, (R)-3-[3-(2-Fluoro-phenyl)-pyrrolidin-1-yl]-1-(2,4,5-trifluoro-benzyl)-propylamine], the inhibition at 10 µM was 99.5%.

Consider `N[C@@H](CCN1CCC(c2ccc(F)cc2)C1)Cc1cc(F)c(F)cc1F` (stereo partly drawn) [Compound 21, (R)-3-[3-(4-Fluoro-phenyl)-pyrrolidin-1-yl]-1-(2,4,5-trifluoro-benzyl)-propylamine], for which the inhibition at 10 µM was 99.6%.

`N[C@@H](CCN1CCCC1)Cc1cc(F)c(F)cc1F` [Compound 28, (R)-3-Pyrrolidin-1-yl-1-(2,4,5-trifluoro-benzyl)-propylamine]: the inhibition at 10 µM is 99.1%.

Turning to `COc1cccc(C2CCN(CC[C@H](N)Cc3cc(F)c(F)cc3F)C2)c1` (stereo partly drawn) [Compound 18, (R)-3-[3-(3-Methoxy-phenyl)-pyrrolidin-1-yl]-1-(2,4,5-trifluoro-benzyl)-propylamine], the inhibition at 10 µM was 99.2%.

As for `N[C@@H](CCN1CCCC(c2cccc(F)c2)C1)Cc1cc(F)c(F)cc1F` (stereo partly drawn) [Compound 12, (R)-3-[3-(3-Fluoro-phenyl)-piperidin-1-yl]-1-(2,4,5-trifluoro-benzyl)-propylamine], the inhibition at 10 µM was determined as 99.7%.

As to `Cc1cccc(C2CCCN(CC[C@H](N)Cc3cc(F)c(F)cc3F)C2)c1` (stereo partly drawn) [Compound 9, (R)-3-(3-m-Tolyl-piperidin-1-yl)-1-(2,4,5-trifluoro-benzyl)-propylamine], the inhibition at 10 µM is 99.7%.

With `N[C@@H](CCN1CCC(c2cccc(F)c2)C1)Cc1cc(F)c(F)cc1F` (stereo partly drawn) [Compound 22, (R)-3-[3-(3-Fluoro-phenyl)-pyrrolidin-1-yl]-1-(2,4,5-trifluoro-benzyl)-propylamine], the inhibition at 10 µM was found to be 99.6%.

The record behind these values is patent US20100076024A1, “Novel Compounds as Serine Protease Inhibitors” (priority 2007, published 2010).
